Values of other authors in patent publication US20200245666A1, “CANNABINOID EMULSIONS, BEVERAGES AND FOODS” (Lighthouse Strategies, LLC, priority 2019, published 2020).

Conditions: smoking a 3.55% THC cigarette

With CCCCCc1cc(O)c2c(c1)OC(C)(C)[C@@H]1CCC(C)=C[C@@H]21 [THC, Δ9-tetrahydrocannabinol] as the compound, how does the peak plasma level read?
The peak plasma level was 152 ± 86.3 ng/mL.

And the “time of peak plasma level after inhalation” value?
Its value is “approximately 10 minutes”.
